One block for each compound: values may come before it.
Columns and labels:
Boophilus microplus = Boophilus microplus injection test; assay type: in vivo; conditions: Rhipicephalus microplus, 168 h, 20 μg/animal, egg deposition after 7 days, read-out: efficacy (infertile eggs)
Experimental: (§1) • Solvent: dimethyl sulfoxide
To produce a suitable preparation of active compound, 10 mg of active compound are dissolved in 0.5 ml solvent, and the concentrate is diluted with solvent to the desired concentration.
Five adult engorged female ticks (Boophilus microplus) are injected with 1 μl compound solution into the abdomen. The ticks are transferred into replica plates and incubated in a climate chamber.
After 7 days egg deposition of fertile eggs is monitored. Eggs where fertility is not visible are stored in a climate chamber till hatching after about 42 days. An efficacy of 100% means all eggs are infertile; 0% means all eggs are fertile.

Ctenocephalides felis [1] = assay: Ctenocephalides felis oral test; assay type: in vivo; conditions: 48 h, 100 ppm in cattle blood, after 2 days
Experimental: as §1
To produce a suitable preparation of active compound, 10 mg of active compound are dissolved in 0.5 ml solvent, and the concentrate is diluted with cattle blood to the desired concentration.
Approximately 20 adult unfed cat fleas (Ctenocephalides felis) are placed in flea chambers. The blood chamber, sealed with parafilm on the bottom, are filled with cattle blood supplied with compound solution and placed on the gauze covered top of the flea chamber, so that the fleas are able to suck the blood. The blood chamber is heated to 37° C. whereas the flea chamber is kept at room temperature.
After 2 days mortality in % is determined. 100% means all the fleas have been killed; 0% means none of the fleas have been killed.

[2] = tested on: Musca domestica strain WHO-N; assay: Musca domestica test (surface treatment & contact assay); assay type: in vivo; conditions: 24 hours after contact, read-out: efficacy (mortality)
Experimental: (§2) • Solvent: Aceton+2000 ppm rapeseed oil methyl ester (RME)
(§3) In order to produce a sufficient, active ingredient containing solution it is necessary to solve the test compound in the solvent-mix (acetone at 2 mg/ml/RME 2000 ppm). This solution is pipetted onto a glazed tile and after evaporation of the acetone, adult flies of the species Musca domestica strain WHO-N are placed onto the dried surface. The exposure time is 30 minutes.
(§4) Mortality in percent (%) is determined 24 hours after contact of the insects to the treated surface. 100% mortality means that all tested insects are dead, whereas 0% means that no insect died.

Nezara viridula = Nezara viridula spray test; assay type: in vivo; conditions: 96 h
Experimental: (§5) • Solvent: 78.0 parts by weight of acetone • 1.5 parts by weight of dimethylformamide • Emulsifier: alkylarylpolyglycol ether
(§6) To produce a suitable preparation of active compound, 1 part by weight of active compound is mixed with the stated amount of solvent, and the concentrate is diluted with water, containing an emulsifier concentration of 1000 ppm, to the desired concentration. Further test concentrations are prepared by dilution with emulsifier containing water.
Barley plants (Hordeum vulgare) infested with larvae of the southern green stink bug (Nezara viridula) are sprayed with a test solution containing the desired concentration of the active ingredient.
After 4 days mortality in % is determined. 100% means all the stink bugs have been killed; 0% means none of the stink bugs have been killed.

Spodoptera frugiperda = Spodoptera frugiperda spray test; assay type: in vivo; conditions: 168 h
Experimental: • Solvent: 78.0 parts by weight acetone • 1.5 parts by weight dimethylformamide • Emulsifier: alkylarylpolyglycol ether
as §6, with “solvents” for “solvent,”, “and” for “and the concentrate”
Maize (Zea mays) leaf sections are sprayed with a preparation of the active ingredient of the desired concentration. Once dry, the leaf sections are infested with fall armyworm larvae (Spodoptera frugiperda).
After 7 days mortality in % is determined. 100% means all caterpillars have been killed and 0% means none of the caterpillars have been killed.

Phaedon cochleariae = Phaedon cochleariae spray test; assay type: in vivo; conditions: 168 h, after 7 days
Experimental: as §5
as §6, with “solvents” for “solvent,”, “and” for “and the concentrate”
Chinese cabbage (Brassica pekinensis) leaf disks are sprayed with a preparation of the active ingredient of the desired concentration. Once dry, the leaf disks are infested with mustard beetle larvae (Phaedon cochleariae).
After 7 days mortality in % is determined. 100% means all beetle larvae have been killed and 0% means none of the beetle larvae have been killed.

[3] = tested on: Aedes aegypti strain MONHEIM; assay: Aedes aegypti test (surface treatment & contact assay); assay type: in vivo; conditions: 24 hours after contact, read-out: efficacy (mortality); for mortality at 20 mg/m2: surface concentration 20 mg/m^2, 30 min exposure
Experimental: as §2
as §3, with “mosquitoes” for “flies”, “Aedes aegypti” for “Musca domestica”, “MONHEIM” for “WHO-N”
as §4

Myzus persicae = Myzus persicae oral test; assay type: in vivo; conditions: 120 h
Experimental: • Solvent: 100 parts by weight acetone
To produce a suitable preparation of active compound, 1 part by weight of active compound is mixed with the stated amount of solvent, and the concentrate is diluted with water to the desired concentration. 50 μl compound solution is filled in microtiter plates and 150 μl IPL41 insect medium (33%+15% sugar) is added to obtain a total volume of 200 μl per well. Afterwards the plates are sealed with parafilm through which a mixed population of the green peach aphid (Myzus persicae) can suck on the compound preparation.
After 5 days mortality in % is determined. 100% means all aphids have been killed and 0% means none of the aphids have been killed.

[4] = log P by HPLC on reversed phase columns (EEC directive 79/831 Annex V.A8); assay type: physicochemical; conditions: LC-UV, neutral range, 0.001 molar ammonium acetate in water and acetonitrile (table footnote); for chromatographic logP: reversed phase HPLC column, read-out: LogP^[a]
Ctenocephalides felis [5] = assay: Ctenocephalides felis in-vitro contact test, adult cat flea; assay type: in vivo; conditions: 5 μg/cm^2, after 48 hours, read-out: efficacy (fleas dead or moribund)
Experimental: 9 mg compound is solved in 1 ml acetone and diluted with acetone to the desired concentration. 250 μl of the test solution is filled in 25 ml glass test tubes and homogeneously distributed on the inner walls by rotation and tilting on a shaking device (2 h at 30 rpm). With a compound concentration of 900 ppm, an inner surface of 44.7 cm^2 and a homogeneous distribution, a dose of 5 μg/cm^2 is achieved.
After the solvent has evaporated, each test tube is filled with 5-10 adult cat fleas (Ctenocephalides felis), closed with a perforated lid and incubated in a lying position at room temperature and relative humidity. After 48 hours efficacy is determined. The fleas are patted on the ground of the tubes and are incubated on a heating plate at 45-50° C. for at most 5 minutes. Immotile or uncoordinated moving fleas, which are not able to escape the heat by climbing upwards, are marked as dead or moribund.
An efficacy of 100% means all fleas are dead or moribund; 0% means no fleas are dead or moribund.

Nilaparvata lugens = Nilaparvata lugens spray test; assay type: in vivo; conditions: 96 h
Experimental: as §5
as §6, with “solvents” for “solvent,”, “and” for “and the concentrate”
Rice plants (Oryza sativa) are sprayed with a preparation of the active ingredient of the desired concentration and the plants are infested with the brown planthopper (Nilaparvata lugens).
After 4 days mortality in % is determined. 100% means all planthoppers have been killed and 0% means none of the planthoppers have been killed.

[6] = surface concentration 4 mg/m^2, 30 min exposure

Structure (SMILES): CC(c1ncnn1-c1ncccn1)N(Cc1ccc(C#N)cc1)C(=O)c1cc(Cl)cc(C(F)(F)F)c1 (stereo not drawn) [Example I-018]
pest or weed control at 0.02 mg (Boophilus microplus): 90% | mortality at 100 ppm (Ctenocephalides felis [1]): 100% | mortality at 4 mg/m2 [2, 6]: 90 to 100% | mortality at 20 mg/m2 ([2]; surface concentration 20 mg/m^2, 30 min exposure): 90 to 100% | mortality at 500 g/ha (Nezara viridula): 100% | mortality at 500 g/ha (Spodoptera frugiperda): 100% | mortality at 500 g/ha (Phaedon cochleariae): 100% | mortality at 4 mg/m2 [3, 6]: 80 to 100% | mortality at 20 mg/m2 [3]: 90 to 100% | mortality at 4 ppm (Myzus persicae): 100% | mortality at 20 ppm (Myzus persicae): 100%

chromatographic logP [4]: 2.51
Structure (SMILES): CC(NCCSC(F)(F)F)c1ncnn1-c1ccc(C#N)cn1 (stereo not drawn) [a-026]

Structure (SMILES): CC(c1ncnn1-c1ncccn1)N(C(=O)c1cc(Cl)cc(C(F)(F)F)c1)C1CSC1 (stereo not drawn) [Example I-024]
pest or weed control at 5 µg/cm2 (Ctenocephalides felis [5]): 100% | mortality at 100 ppm (Ctenocephalides felis [1]): 100% | mortality at 500 g/ha (Nezara viridula): 100% | mortality at 500 g/ha (Phaedon cochleariae): 100% | mortality at 500 g/ha (Nilaparvata lugens): 100% | mortality at 4 ppm (Myzus persicae): 100% | mortality at 20 ppm (Myzus persicae): 100%

chromatographic logP [4]: 0.38
Structure (SMILES): CC(NCc1ncccn1)c1ncnn1-c1ncccn1 (stereo not drawn) [a-011]

chromatographic logP [4]: 1.9
Structure (SMILES): CC(NCC1(c2ccccc2)CC1)c1ncnn1-c1ncccn1 (stereo not drawn) [a-005]

chromatographic logP [4]: 0.42
Structure (SMILES): CONC(C)c1ncnn1-c1ncccn1 (stereo not drawn) [a-024]

chromatographic logP [4]: 0.51
Structure (SMILES): CC(NCC1CS(=O)(=O)C1)c1ncnn1-c1ncccn1 (stereo not drawn) [a-008]

chromatographic logP [4]: 0.92
Structure (SMILES): CSCCNC(C)c1ncnn1-c1ncccn1 (stereo not drawn) [a-017]

chromatographic logP [4]: 0.66
Structure (SMILES): CC(NCC1CCOC1)c1ncnn1-c1ncccn1 (stereo not drawn) [a-013]

chromatographic logP [4]: 0.87
Structure (SMILES): CC(NC1CSC1)c1ncnn1-c1ncccn1 (stereo not drawn) [a-023]

chromatographic logP [4]: 2.03
Structure (SMILES): CC(NCC1CCCCC1)c1ncnn1-c1ncccn1 (stereo not drawn) [a-016]

chromatographic logP [4]: 0.68
Structure (SMILES): CC(NCc1cccnc1)c1ncnn1-c1ncccn1 (stereo not drawn) [a-019]

Structure (SMILES): CC(c1ncnn1-c1ncccn1)N(CC1(c2ccccc2)CC1)C(=O)c1cc(Cl)cc(C(F)(F)F)c1 (stereo not drawn) [Example I-006]
mortality at 100 ppm (Ctenocephalides felis [1]): 100% | mortality at 500 g/ha (Spodoptera frugiperda): 100% | mortality at 500 g/ha (Phaedon cochleariae): 100% | mortality at 20 mg/m2 [3]: 90 to 100% | mortality at 20 ppm (Myzus persicae): 90%

LogP^[a] [4]: 0.66
Structure (SMILES): CC(NCC1CCOC1)c1ncnn1-c1ncccn1 (stereo not drawn) [a-015]

chromatographic logP [4]: 1.12
Structure (SMILES): CC(NCC1CSC1)c1ncnn1-c1ncccn1 (stereo not drawn) [a-007]

Structure (SMILES): CC(c1ncnn1-c1ncccn1)N(CC1CCCO1)C(=O)c1cc(Cl)cc(C(F)(F)F)c1 (stereo not drawn) [Example I-012]
mortality at 20 ppm (Myzus persicae): 100%

chromatographic logP [4]: 0.85
Structure (SMILES): CC(NCC1CCOCC1)c1ncnn1-c1ncccn1 (stereo not drawn) [a-003]

Structure (SMILES): CC(c1ncnn1-c1ncccn1)N(Cc1ccncc1)C(=O)c1cc(Cl)cc(C(F)(F)F)c1 (stereo not drawn) [Example I-014]
pest or weed control at 0.02 mg (Boophilus microplus): 100% | mortality at 100 ppm (Ctenocephalides felis [1]): 100% | mortality at 500 g/ha (Nezara viridula): 100% | mortality at 500 g/ha (Spodoptera frugiperda): 100% | mortality at 500 g/ha (Phaedon cochleariae): 100% | mortality at 500 g/ha (Nilaparvata lugens): 100% | mortality at 4 ppm (Myzus persicae): 100% | mortality at 20 ppm (Myzus persicae): 100%

— patent US12116357B2, “Heteroaryl-triazole and heteroaryl-tetrazole compounds as pesticides” (Bayer Aktiengesellschaft, priority 2018, dated 2024)
